The record followed here is patent publication US20090215894A1, “INHIBITION OF PHOSPHATASE ACTIVITY OF SOLUBLE EPOXIDE HYDROLASE AMINO TERMINUS AND USES THEREOF” (REGENTS OF THE UNIVERSITY OF CALIFORNIA, priority 2005, published 2009).

Some results are limits rather than exact numbers.

For data set [1], the target named is T1, Human sEH Cterm-EH activity (Homo sapiens, UniProt P34913).
T1 construct: use of a truncated enzyme from crude extract versus purified full-length human sEH; made in house; host or cells: baculovirus expression system (insect cells)
T1 sequence (P34913 1-555): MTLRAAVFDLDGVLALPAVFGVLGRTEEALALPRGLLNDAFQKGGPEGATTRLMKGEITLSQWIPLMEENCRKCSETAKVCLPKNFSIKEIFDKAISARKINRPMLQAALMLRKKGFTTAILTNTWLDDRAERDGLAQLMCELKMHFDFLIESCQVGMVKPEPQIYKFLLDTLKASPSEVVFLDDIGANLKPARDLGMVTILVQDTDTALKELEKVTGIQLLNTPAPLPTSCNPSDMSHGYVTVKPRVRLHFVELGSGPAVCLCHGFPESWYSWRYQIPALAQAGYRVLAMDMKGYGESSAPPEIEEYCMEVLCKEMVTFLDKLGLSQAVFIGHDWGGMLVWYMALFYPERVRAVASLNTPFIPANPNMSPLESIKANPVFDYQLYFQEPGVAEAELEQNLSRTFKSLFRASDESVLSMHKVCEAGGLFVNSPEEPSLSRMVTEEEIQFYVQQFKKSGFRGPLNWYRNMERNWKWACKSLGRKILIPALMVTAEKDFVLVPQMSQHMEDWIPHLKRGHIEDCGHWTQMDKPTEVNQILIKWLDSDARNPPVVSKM
The data set can be described thus: Cterm-EH inhibition IC50 with 4-nitrophenyl-trans-2,3-epoxy-3-phenylpropyl carbonate. Type of data set: biochemical. The settings on record: substrate 50 μM, 5 min preincubation, 30° C.; read-out: IC50.

Another data set deals with cress sEH. Description: EH activity inhibition, cress sEH. The class given is biochemical, mouse-eared cress. An excerpt: (§1) Recombinant human sEH (HsEH) was produced in a baculovirus expression system (Beetham et al., Arch. Biochem. Biophys. 305, 197-201 (1993)) and purified by affinity chromatography (Wixtrom et al., Anal. Biochem. 169, 71-80 (1983)). […] No detectable esterase or glutathione transferase activities were observed. Recombinant mouse-eared cress sEH was produced in a baculovirus expression system and purified as described (Morisseau et al., Arch. Biochem. Biophys. 378, 321-332 (2000)). The nucleotide sequence of the C-terminal region (Mel^[…]) of human sEH was amplified by PCR using [NT] as forward primer and [NT] as reverse primer. The resulting band was gel purified and restricted with EcoR1 and Sal1, which were introduced by the primers, and the restricted fragment sub-cloned into the multiple cloning site of the pFastBac1 vector (Invitrogen). After verification of the obtained nucleotide sequence, the recombinant pFastBac1 plasmid was introduced in competent DH10bac cells leading to the formation of a recombinant plasmid containing the DNA insert. The isolated recombinant plasmid was used to produce recombinant baculovirus in Sf21 cells following procedures recommended by the manufacturer. The truncated HsEH was produced in high-5 Trichloplusia ni cell cultures following published procedures (Beetham et al., Arch. Biochem. Biophys. 305, 197-201 (1993)). Seventy-two hours post infection, the cells were collected by centrifugation (2,000 g×20 min). The cell pellet was then suspended in a sodium phosphate buffer (76 mM, pH 7.4) containing 1 mM of phenylmethylsulfonyl fluoride, EDTA and dithiothretol. The suspension was then homogenized by Polytron at 9,000 rpm for 1 min and centrifuged (10,000 g×20 min). The resulting supernatant was frozen at -80° C. until used for experiments. […] Protein concentrations were quantified with the Pierce BCA assay (Pierce; Rockford, Ill.) using Fraction V bovine serum albumin (BSA) as the calibrating standard. Nterm-Phos activity was measured in Bis-Tris HCl buffer (25 mM PH 7.0) containing 0.1 mg/mL of Fraction V BSA and 1 mM of MgCl2 (buffer A) at 30° C. […] APHP activity was measured as described using 7 as substrate (Newman et al., Proc. Natl. Acad. Sci. USA. 100, 1558-1563 (2003)). Compounds 34-37 were incubated separately with the enzyme for a given time, and then the reaction was stopped by the addition of 100 μL of methanol. The reaction products for compounds 34-37 were extracted with 500 μL of ethyl acetate. The quantification of the alcohol products was performed by LC/MS analysis of 2 μL of the organic phase. […] Biochem. 231, 188-200 (1995)). This latter substrate was also used to measure the activity of the cress sEH and the truncated human sEH.

A further data set deals with T2, Nterm-phos (Homo sapiens, UniProt P34913).
T2 construct: use of a truncated enzyme from crude extract versus purified full-length human sEH; made in house; host or cells: baculovirus expression system (insect cells)
T2 sequence (P34913 1-555): T1 sequence (P34913 1-555)
Description: Sulfates tested as substrates for Nterm-phos (LC-MS of alcohol or diol). The class given is biochemical. As to conditions: enzyme 400 nM, compound 100 μM, one hour. On the procedure: To understand the mode of action of these new inhibitors, compounds 1 and 2 were tested as substrates for the Nterm-phos. Enzyme was incubated (400 nM) with the compounds (100 μM) for an hour and analyzed the mixture by LC-MS to detect any alcohol or diol formed (Newman et al., Proc. Natl. Acad. Sci. USA. 100, 1558-1563 (2003)). Formation of any alcohol or diol was not detected.

A further data set deals with T3, truncated human sEH (Homo sapiens, UniProt P34913).
T3 construct: C-terminal region (Mel^237-Met^554) of human sEH was amplified by PCR; made in house; host or cells: baculovirus (pFastBac1) in high-5 Trichoplusia ni cells; 10,000 g supernatant used as crude extract
T3 sequence (P34913 237-555 limits assumed): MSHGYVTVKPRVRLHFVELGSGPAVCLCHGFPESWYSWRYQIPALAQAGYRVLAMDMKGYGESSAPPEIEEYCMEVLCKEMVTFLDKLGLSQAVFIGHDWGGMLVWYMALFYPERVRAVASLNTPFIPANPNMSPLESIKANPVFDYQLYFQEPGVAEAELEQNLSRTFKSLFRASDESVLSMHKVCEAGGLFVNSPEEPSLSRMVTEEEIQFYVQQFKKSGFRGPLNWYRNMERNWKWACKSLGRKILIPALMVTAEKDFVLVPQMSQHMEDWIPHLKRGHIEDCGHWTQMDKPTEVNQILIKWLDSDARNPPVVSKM
The data set can be described thus: EH activity inhibition, N-terminally truncated human sEH. Type of data set: biochemical.
Source text: as §1

For a further data set, the target named is T4, full length human sEH (Homo sapiens, UniProt P34913).
T4 construct: use of a truncated enzyme from crude extract versus purified full-length human sEH; made in house; host or cells: baculovirus expression system (insect cells)
T4 sequence (P34913 1-555): T1 sequence (P34913 1-555)
The data set can be described thus: EH activity inhibition, full length human sEH. Type of data set: biochemical. How it is done: Nterm-Phos activity was measured in Bis-Tris HCl buffer (25 mM PH 7.0) containing 0.1 mg/mL of Fraction V BSA and 1 mM of MgCl2 (buffer A) at 30° C. […] APHP activity was measured as described using 7 as substrate (Newman et al., Proc. Natl. Acad. Sci. USA. 100, 1558-1563 (2003)). Compounds 34-37 were incubated separately with the enzyme for a given time, and then the reaction was stopped by the addition of 100 μL of methanol. The reaction products for compounds 34-37 were extracted with 500 μL of ethyl acetate. The quantification of the alcohol products was performed by LC/MS analysis of 2 μL of the organic phase. The Cterm-EH activity was measured as described previously in buffer A, using either racemic 4-nitrophenyl-trans-2,3-epoxy-3-phenylpropyl carbonate (Dietze et al., Anal. Biochem. 216, 176-187 (1994)) or racemic [^3H]-trans-1,3-diphenylpropene oxide as substrate (Borhan et al., Anal. Biochem. 231, 188-200 (1995)). This latter substrate was also used to measure the activity of the cress sEH and the truncated human sEH.

Data set [2] deals with T1, Human sEH Cterm-EH activity. Description: Cterm-EH dissociation constant with [3H]-trans-1,3-diphenylpropene oxide. Type of data set: biochemical. How it is done:
For the Cterm-EH activity, dissociation constants were determined using racemic [^3H]-trans-1,3-diphenylpropene oxide as substrate. […] Velocity was measured as described (Borhan et al., Anal. Biochem. 231, 188-200 (1995)). […] Results are mean±standard deviation of three separate determination of KI.

With `CCCCCCCCC(CCCCCCCCC(=O)O)OS(=O)(=O)O` (stereo not drawn) [Compound 1, 10-Sulfonooxy-octadecanoic acid], in data set [1], the IC50 (commonly the concentration that inhibits the measured activity by half) was determined as 28 ± 2 µM. Besides, the Inhibition (as a rule, the share of the control response that was lost under treatment) at 100 μM (%) with cress sEH is on record as below 2%. Besides, the “Formation of any alcohol or diol” value at Nterm-phos is “not detected”. Moreover, the inhibition (usually the percentage by which the read-out fell short of the control) at 100 µM is 89 ± 3% on truncated human sEH and 86 ± 2% against full length human sEH. In addition, the “KI at Cterm-EH relative to KI at Nterm-Phos” value in data set [2] is “roughly 100 fold”. Further, in data set [2] (non-competitive inhibition, n=3), the Ki – broadly, a measure of affinity in units of concentration, obtained from inhibition or displacement – is 31 ± 2 µM.

`CCCCCCCCC(OS(=O)(=O)O)C(O)CCCCCCCC(=O)O` (stereo not drawn) [Compound 2, 9/10-Sulfonooxy-hydroxy-octadecanoic acid]: the IC50 in data set [1] stood at 90 ± 5 µM. Further, the “Inhibition at 100 μM (%)” value in the data set with cress sEH is recorded as below 2%. At Nterm-phos, the “Formation of any alcohol or diol” value is “not detected”. Also, the inhibition at 100 µM on truncated human sEH stood at 58 ± 2%; on full length human sEH, 54 ± 3%.

Take `CCCCCCCCCC(CCCCCCCC)OS(=O)(=O)O` (stereo not drawn) [Compound 3, 9-Octadecanyl-sulfate]: the IC50 in data set [1] turned out to be 21 ± 5 µM. For the same molecule, in the data set with cress sEH, the “Inhibition at 100 μM (%)” value is given as below 2%. Besides, the inhibition at 100 µM against truncated human sEH came out at 67 ± 3%; on full length human sEH it was 72 ± 2%.

For the molecule `CCCCCCC(C/C=C\CCCCCCCC(=O)O)OS(=O)(=O)O` (stereo not drawn) [Compound 4, 12-Sulfonoxy-cis-9-octadecenoic acid], the IC50 in data set [1] was above 100 µM. In addition, the “Inhibition at 100 μM (%)” value with cress sEH is on record as below 2%. Further, the inhibition at 100 µM on truncated human sEH worked out at 16 ± 2%; on full length human sEH it was 26 ± 3%.

With `CCCCCCC(C/C=C/CCCCCCCC(=O)O)OS(=O)(=O)O` (stereo not drawn) [Compound 5, 12-Sulfonoxy-trans-9-octadecenoic acid], the IC50 in data set [1] stood at 16 ± 3 µM. The “Inhibition at 100 μM (%)” value with cress sEH is recorded as below 2%. The inhibition at 100 µM is 44 ± 4% at truncated human sEH and 68 ± 2% on full length human sEH.
